Measured values: ChEMBL document CHEMBL3045401, “(Naphthalen-1-yloxy)-acetic acid benzylidene/(1-phenyl-ethylidene)-hydrazide derivatives: synthesis, antimicrobial evaluation, and QSAR studies” (Med Chem Res, 2012)
Values after ≈ are worked out from the molar mass of the structure shown.

Assays:
Human betaherpesvirus 5 [1] = assay: Antiviral activity against Human herpesvirus 5 Davis infected human HEL cells assessed as reduction in the virus plaque formation; format: functional, organism-based; settings: Human betaherpesvirus 5, Davis
[2] = system: Human immunodeficiency virus 1; assay: Antiviral activity against Human immunodeficiency virus 1 IIIB infected human MT4 cells assessed as inhibition of virus-induced cytopathic effect after 4 days by MTT assay; format: functional, organism-based; settings: MT4, 96 h
[3] = Octanol-water partition coefficient, log P of the compound; format: physicochemical
Candida albicans = assay: Antimicrobial activity against Candida albicans after 2 days by serial dilution method; format: functional
Bacillus subtilis = assay: Antimicrobial activity against Bacillus subtilis after 24 hr by serial dilution method; format: functional
Human alphaherpesvirus 3 [4] = assay: Antiviral activity against thymidine kinase-positive Human herpesvirus 3 infected in HEL cells assessed as inhibition of viral plaque formation; format: functional, organism-based; settings: Human alphaherpesvirus 3, HEL
Staphylococcus aureus = assay: Antimicrobial activity against Staphylococcus aureus after 24 hr by serial dilution method; format: functional
Human betaherpesvirus 5 [5] = assay: Antiviral activity against Human herpesvirus 5 strain AD169 infected human HEL cells assessed as reduction in the virus plaque formation; format: functional, organism-based; settings: Human betaherpesvirus 5, AD169, HEL
Aspergillus niger = assay: Antimicrobial activity against Aspergillus niger after 7 days by serial dilution method; format: functional
Escherichia coli = assay: Antimicrobial activity against Escherichia coli after 24 hr by serial dilution method; format: functional
[6] = Cytotoxicity against HEL assessed as minimum concentration required to cause morphological changes; format: cell-based; settings: human, HEL cells
[7] = Cytotoxicity against HEL; format: cell-based; settings: human, HEL cells
[8] = Cytotoxicity against Homo sapiens (human) MT4 cells after 4 days by MTT assay; format: cell-based
[9] = system: Human immunodeficiency virus 2; assay: Antiviral activity against Human immunodeficiency virus type 2 (ISOLATE ROD) infected human MT4 cells assessed as inhibition of virus-induced cytopathic effect after 4 days by MTT assay; format: functional, organism-based; settings: Human immunodeficiency virus 2, ISOLATE ROD, MT4, 96 h
Human alphaherpesvirus 3 [10] = assay: Antiviral activity against thymidine kinase-deficient Human herpesvirus 3 infected in HEL cells assessed as inhibition of viral plaque formation; format: functional, organism-based; settings: Human alphaherpesvirus 3, HEL

| Structure (SMILES) | EC50 (Human betaherpesvirus 5 [1]) [mg/L] | EC50 [2] [mg/L] | logP [3] | -logMIC (Candida albicans) | -logMIC (Bacillus subtilis) | EC50 (Human alphaherpesvirus 3 [4]) [mg/L] | -logMIC (Staphylococcus aureus) | EC50 (Human betaherpesvirus 5 [5]) [mg/L] | -logMIC (Aspergillus niger) | -logMIC (Escherichia coli) | MCC [6] [µg/mL] | CC50 [7] [mg/L] | CC50 at 96 h [8] [mg/L] | EC50 [9] [mg/L] | EC50 (Human alphaherpesvirus 3 [10]) [mg/L] |
| --- | --- | --- | --- | --- | --- | --- | --- | --- | --- | --- | --- | --- | --- | --- | --- |
| O=C(COc1cccc2ccccc12)N/N=C/c1cccc(O)c1 | > 20 | > 32.6 | 3.73 | 1.41 | 1.11 | 9.2 (≈ 28.7 µM) | 1.71 | > 20 | 1.41 | 1.41 | 100 | 62.7 (≈ 196 µM) | 32.6 (≈ 102 µM) | > 32.6 | 16.2 (≈ 50.6 µM) |
| C/C(=N\NC(=O)COc1cccc2ccccc12)c1ccc(C#N)cc1Br | > 4 | > 12.1 | 3.61 | 2.13 | 1.23 | > 4 | 1.23 | > 4 | 1.53 | 1.53 | 20 | 12.7 (≈ 30.1 µM) | 12.1 (≈ 28.7 µM) | > 12.1 | > 4 |
| O=C(COc1cccc2ccccc12)N/N=C/c1ccccc1 | > 20 | > 96.6 | 4.02 | 0.78 | 0.78 | > 20 | 0.78 | > 20 | 0.78 | 0.78 | 100 | 64.5 (≈ 212 µM) | ≥ 96.6 | > 96.6 | > 20 |
| O=C(COc1cccc2ccccc12)N/N=C/c1cccc(Cl)c1 | > 20 | > 89.9 | 4.54 | 0.53 | 0.53 | > 100 | 0.83 | > 20 | 0.53 | 0.53 | 100 | 58.6 (≈ 173 µM) | 89.9 (≈ 265 µM) | > 89.9 | > 100 |
| COc1ccc(OC)c(/C=N/NC(=O)COc2cccc3ccccc23)c1 | > 20 | > 19.2 | 3.51 | 1.46 | 1.16 | > 4 | 1.16 | > 4 | 1.46 | 1.46 | ≥ 20 | 56.9 (≈ 156 µM) | 19.2 (≈ 52.8 µM) | > 19.2 | > 20 |
| COc1cc(/C=N/NC(=O)COc2cccc3ccccc23)cc(OC)c1O | > 20 | > 16.3 | 3.23 | 1.78 | 1.48 | 16.9 (≈ 44.4 µM) | 1.18 | > 20 | 1.48 | 1.48 | 100 | 52.8 (≈ 139 µM) | 16.3 (≈ 42.8 µM) | > 16.3 | > 20 |
| COc1cc(/C=N/NC(=O)COc2cccc3ccccc23)cc(OC)c1OC | > 20 | > 13.4 | 3.26 | 1.5 | 1.5 | 12.5 (≈ 31.7 µM) | 1.8 | > 4 | 1.5 | 1.5 | ≥ 20 | 47.9 (≈ 121 µM) | 13.4 (≈ 34 µM) | > 13.4 | 17.4 (≈ 44.1 µM) |
| C/C(=N\NC(=O)COc1cccc2ccccc12)c1ccc([N+](=O)[O-])cc1 | > 20 | > 89.3 | 3.37 | 1.46 | 1.16 | > 20 | 1.16 | > 20 | 0.86 | 1.46 | 100 | > 100 | 89.3 (≈ 246 µM) | > 89.3 | > 20 |
| CCn1cc(C(=O)O)c(=O)c2cc(F)c(N3CCNCC3)cc21 [NORFLOXACIN] |  |  |  |  | 2.61 |  | 2.61 |  |  | 2.61 |  |  |  |  |  |
| C/C(=N\NC(=O)COc1cccc2ccccc12)c1ccccc1Br | > 4 | > 79.8 | 4.44 | 1.5 | 1.2 | > 4 | 1.2 | > 4 | 1.5 | 1.2 | 20 | 16.2 (≈ 40.8 µM) | 79.8 (≈ 201 µM) | > 79.8 | > 4 |
| COc1ccc(/C=N/NC(=O)COc2cccc3ccccc23)cc1 | > 4 | > 76.9 | 3.77 | 0.82 | 0.82 | > 4 | 0.82 | > 4 | 0.82 | 0.82 | 20 | 100 (≈ 299 µM) | 76.9 (≈ 230 µM) | > 76.9 | > 4 |
| O=C(COc1cccc2ccccc12)N/N=C/c1cccc([N+](=O)[O-])c1 | > 20 | > 12.1 | 3.97 | 1.45 | 1.14 | > 4 | 1.14 | > 4 | 0.84 | 1.45 | ≥ 20 | 61.2 (≈ 175 µM) | 12.1 (≈ 34.6 µM) | > 12.1 | > 4 |
| O=C(COc1cccc2ccccc12)N/N=C/c1ccccc1[N+](=O)[O-] | > 4 | > 12.2 | 3.97 | 1.45 | 1.14 | > 4 | 1.45 | > 4 | 1.45 | 1.45 | 20 | 100 (≈ 286 µM) | 12.2 (≈ 34.9 µM) | > 12.2 | > 4 |
| CCOc1ccc(/C=N/NC(=O)COc2cccc3ccccc23)cc1O | > 20 | > 6.23 | 3.82 | 1.46 | 1.46 | > 4 | 1.16 | > 20 | 1.46 | 1.46 | 100 | 18.1 (≈ 49.7 µM) | 6.23 (≈ 17.1 µM) | > 6.23 | > 4 |
| O=C(COc1cccc2ccccc12)N/N=C/c1ccc(Cl)cc1 | > 20 | > 87.6 | 4.54 | 0.53 | 0.53 | > 100 | 1.43 | > 20 | 0.53 | 0.53 | 100 | 100 (≈ 295 µM) | 87.6 (≈ 259 µM) | > 87.6 | > 100 |
| O=C(COc1cccc2ccccc12)N/N=C/c1cccc(Br)c1 | > 20 | > 87.4 | 4.81 | 0.58 | 0.58 | > 20 | 1.79 | > 20 | 0.58 | 0.58 | 100 | 48.6 (≈ 127 µM) | 87.4 (≈ 228 µM) | > 87.4 | > 20 |
| Cc1ccnc2c1NC(=O)c1cccnc1N2C1CC1 [NEVIRAPINE] |  |  |  |  |  |  |  |  |  |  |  |  | > 4 | > 4 |  |
| COc1ccc(/C=N/NC(=O)COc2cccc3ccccc23)cc1OC | > 20 | > 14.6 | 3.51 | 1.46 | 1.16 | > 4 | 1.46 | > 4 | 1.46 | 1.46 | ≥ 20 | 52.6 (≈ 144 µM) | 14.7 (≈ 40.2 µM) | > 14.6 | > 20 |
| C/C(=N\NC(=O)COc1cccc2ccccc12)c1ccc(O)cc1 | > 4 | > 68.8 | 4.44 | 1.43 | 1.13 | > 4 | 1.13 | > 4 | 1.43 | 1.43 | 20 | 11.1 (≈ 33.2 µM) | 68.8 (≈ 206 µM) | > 68.8 | > 0.8 |
| Nc1ccn(C[C@@H](CO)OCP(=O)(O)O)c(=O)n1.O.O [CIDOFOVIR] | 0.3 |  |  |  |  |  |  | 0.8 |  |  | > 100 | 35.4 |  |  |  |
| O=c1[nH]c(=O)n([C@H]2C[C@H](O)[C@@H](CO)O2)cc1/C=C/Br [BRIVUDINE] |  |  |  |  |  | 0.0093 (≈ 0.0279 µM) |  |  |  |  | > 100 | 173 (≈ 519 µM) |  |  | 20 (≈ 60 µM) |
| OC(Cn1cncn1)(Cn1cncn1)c1ccc(F)cc1F [FLUCONAZOLE] |  |  |  | 2.64 |  |  |  |  | 2.64 |  |  |  |  |  |  |
| Cc1cn([C@H]2C[C@H](N=[N+]=[N-])[C@@H](CO)O2)c(=O)[nH]c1=O [ZIDOVUDINE] |  | 0.002 (≈ 0.00748 µM) |  |  |  |  |  |  |  |  |  |  | > 25 |  |  |
| Nc1nc2c(ncn2COC(CO)CO)c(=O)[nH]1 [GANCICLOVIR] | 1.79 (≈ 7.01 µM) |  |  |  |  |  |  | 2.68 (≈ 10.5 µM) |  |  | > 100 | 60.5 (≈ 237 µM) |  |  |  |
| NNC(=O)COc1ccc2ccccc2c1 [2-NAPHTHOXY ACETIC ACID HYDRAZIDE] |  |  |  | 0.64 | 0.64 |  | 0.94 |  | 0.64 | 0.94 |  |  |  |  |  |
| Nc1nc2c(ncn2COCCO)c(=O)[nH]1 [ACYCLOVIR] |  |  |  |  |  | 0.44 (≈ 1.95 µM) |  |  |  |  | > 100 | 120 (≈ 533 µM) |  |  | 23 (≈ 102 µM) |
